The values below come from patent publication US8119589B2, “Modulation of CD4+ T cell responses by a tick saliva protein, Salp15 and polypeptides derived therefrom” (University of North Carolina at Charlotte, priority 2004, dated 2012).

Assay [1] has as its system Jurkat clone E6-1. The experiment in a line: TCR ligation-induced tyrosine phosphorylation in stimulated Jurkat cells. Type of assay: cell-based, human. The protocol:
(§1) Naïve CD4+ T cells from C3H/HeN, Balb/c, and B10.BR mice were purified as previously described (Anguita et al., 2002). CD4+ T cells were preincubated in Click's modified Bruff's Medium (Sigma Chemical Co., St. Louis, Mo., U.S.A.) for 10 minutes at 37° C. with and without Salp15 (50 μg/mL) and stimulated for 20 min or the indicated times at 37° C. with 10 μg/mL of anti-CD3ε, 1 μg/mL of anti-CD28, and 10 μg/mL of anti-armenian and syrian hamster IgG (BD Biosciences Pharmingen, San Jose, Calif., U.S.A.). Jurkat (E6-1) cells were stimulated using 5 μg/mL of OKT3 mAb (eBioscience, San Diego, Calif., U.S.A.) and 1 μg/mL of anti-human CD28 cross linked with 5 μg/mL anti-mouse IgG for the indicated times.
(§2) For the visualization of lipid rafts, phospho-tyrosine, and cytoskeleton reorganization, CD4^+, CD8^+ or Jurkat cells were cytospun for 10 minutes at 1000 RPM onto positively charged microslides (Fisher Scientific, Hampton, N.H., U.S.A.). The cells were fixed with 3.7% paraformaldehyde (Sigma Chemical Co.) for 15 minutes and stained with CTB594 (Molecular Probes, Eugene, Oreg., U.S.A.), AlexaFluor488 labeled phalloidin (Molecular Probes) or (1:50) biotin-conjugated anti-p-Tyr (PY99) followed by Streptavidin-AlexaFluor594 (1:100, Molecular Probes). […]

Assay [2] deals with Jurkat cells. The assay can be described thus: Lipid raft redistribution (CTB594 staining) in activated Jurkat cells. The format is cell-based, human. Particulars: Salp15 treatment prior to anti-CD3/CD28 stimulation. How it is done:
as §1, §2

Assay [3] addresses T1, CD4 co-receptor (Homo sapiens, UniProt P01730).
T1 construct: 1-2×10^7 Jurkat, HeLa or HeLa-CD4 cells were lysed; endogenous in cells; host or cells: Jurkat
The experiment in a line: Co-immunoprecipitation with His-tagged Salp15 from Jurkat cell lysate. The format is binding. The settings on record: anti-His. The protocol: For coimmunoprecipitation, 1-2×10^7 Jurkat, HeLa or HeLa-CD4 cells were lysed in 20 mM HEPES pH 7.4 containing 150 mM NaCl, 1% Triton-X 100, 0.25% sodium deoxycholate, 25 mM NaF, 2 mM Na3VO4, 1 mM PMSF and protease inhibitors for 15 min on ice. One mg of protein equivalent of the cell lysate was mixed with 50 μg/mL of 6× histidine-tagged-Salp15 or 6×His-tagged Salp13 fused to thioredoxin (29 kD) as a control protein, (Anguita et al., 2002, Das et al., 2001) and immunoprecipitated using an anti-poly-histidine antibody conjugated to agarose, anti-CD4, anti-CD3, anti-CD28 or normal rabbit IgG overnight at 4° C. The immunoprecipitate was run on SDS-PAGE followed by immunoblotting with anti-poly His-HRP, anti-CD4, anti-CD3, anti-CD28 or anti-TCRβ.

Consider “Salp15: secreted salivary protein from Ixodes scapularis, SEQ ID NO: 2; recombinant His-tagged, produced in Drosophila S2 cells”, for which the “Inhibitory effects on TCR ligation-induced tyrosine phosphorylation” value in assay [1] (Jurkat cells, anti-pTyr staining) is recorded as “also observed”. Also, in assay [1] (Jurkat clone E6-1), the “Inhibition of PLCγ1 phosphorylation” value is “also evident”. Besides, the Lipid raft clustering result in assay [2] is recorded as “reduced”. For the same substance, the “Co-immunoprecipitation of CD4” value in assay [3] was “co-immunoprecipitated”.
